Measurements as given in paper PMC11276905 (International Journal of Molecular Sciences, 2024).
Entries after “also recorded” stand apart in the source; their conditions may differ. Like-named read-outs stand apart in the source and are kept apart here. Where a SMILES comes first, the peptide text is derived from it. The star is where a group is joined. MeOSuc = COC(=O)CCC(=O)*; CH2Cl = ClC*

T1: isolated HNE (human neutrophil elastase) (Homo sapiens, UniProt P08246)
T1 construct: immediately processed to its active form in the trans-Golgi before being targeted to azurophil granules; purchased Merck (Darmstadt, Germany) 324681
T1 sequence (P08246 30-267): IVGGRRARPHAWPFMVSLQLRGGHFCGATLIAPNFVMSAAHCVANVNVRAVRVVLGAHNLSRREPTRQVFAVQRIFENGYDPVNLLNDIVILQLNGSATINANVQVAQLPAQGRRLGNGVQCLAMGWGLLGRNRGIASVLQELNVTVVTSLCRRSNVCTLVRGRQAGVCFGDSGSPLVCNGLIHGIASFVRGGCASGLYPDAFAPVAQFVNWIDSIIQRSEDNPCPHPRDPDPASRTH

T2: HNE in U937 lysates (Homo sapiens, UniProt P08246)
T2 construct: the myeloid cell line U937, which can differentiate into neutrophils [25] and expresses HNE; host or cells: U937 (histiocytic lymphoma), undifferentiated
T2 sequence (P08246 30-247 limits assumed): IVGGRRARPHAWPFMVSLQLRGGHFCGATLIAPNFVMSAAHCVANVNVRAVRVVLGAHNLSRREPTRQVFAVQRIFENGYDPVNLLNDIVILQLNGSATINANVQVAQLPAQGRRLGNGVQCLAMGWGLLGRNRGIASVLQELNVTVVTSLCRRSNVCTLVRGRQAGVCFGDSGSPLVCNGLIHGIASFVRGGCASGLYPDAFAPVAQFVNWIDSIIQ

T3: HNE in U937 cells (Homo sapiens, UniProt P08246)
T3 construct: the myeloid cell line U937, which can differentiate into neutrophils [25] and expresses HNE; host or cells: U937 (histiocytic lymphoma), undifferentiated
T3 sequence (P08246 30-247 limits assumed): T2 sequence (P08246 30-247 limits assumed)

T4: isolated HNE (Homo sapiens, UniProt P08246)
T4 construct: immediately processed to its active form in the trans-Golgi before being targeted to azurophil granules; purchased Merck (Darmstadt, Germany) 324681
T4 sequence (P08246 30-267): T1 sequence (P08246 30-267)

T5: HNE in mature PMN (Homo sapiens, UniProt P08246)
T5 sequence (P08246 30-247 limits assumed): T2 sequence (P08246 30-247 limits assumed)

T6: elastase-like activity (HNE) in PMN lysates (Homo sapiens, UniProt P08246)
T6 construct: from tissue; host or cells: neutrophil granulocytes from peripheral venous blood of healthy human donors
T6 sequence (P08246 30-247 limits assumed): T2 sequence (P08246 30-247 limits assumed)

T7: eglin C (Hirudo medicinalis, UniProt P01051)
T7 chain: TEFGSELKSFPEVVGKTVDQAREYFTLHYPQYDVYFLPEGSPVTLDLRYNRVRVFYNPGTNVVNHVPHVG

B1: Eglin C: small leech-derived protein (70 amino acids, 8091 Da), proteinase inhibitor (protein, UniProt P01051 1-70, looked up)
Eglin C: T7 chain
B2: neutrophil elastase (protein)
chain: T1 sequence (P08246 30-267)

What was measured:
[1] = molecular target: T1, isolated HNE (human neutrophil elastase); experiment: Inhibition of isolated HNE, steady-state kinetics (MeOSuc-AAPV-AMC); assay type: biochemical; settings: for Ki: incubated 1 h 37 °C, Morrison fit, mean ± SD, compound 5b in phosphate buffer pH 7.4; for inhibition of HNE (in words): negative controls
Method: (§1) To determine the inhibition constants of reversible inhibitors with isolated HNE and HNE in cell lysates, HNE (0.5 nM) and U937 lysates (1000 cells/µL) were incubated with serial dilutions of the compounds in assay buffer at 37 °C for ≥ 1 h. Subsequently, residual HNE activity was measured as described above and compared to the activity of uninhibited HNE. […] The inhibition curves generated were fitted to Morrisons’s equation to obtain the dissociation equilibrium constant Ki with pro-Fit (Quantum Soft, Uetikon am See, Switzerland) using a Levenberg–Marquardt algorithm.

HNE in U937 lysates = molecular target: T2, HNE in U937 lysates; experiment: Inhibition of HNE activity in U937 lysates; assay type: biochemical; settings: for Ki: U937 lysate 1000 cells/µL, incubated 1 h 37 °C, Morrison fit, mean ± SD
Method: (§2) For the quantification and characterization of HNE-like activity in cell lysates, the density of the sample cell suspension was first quantified using a CASY-1 cell counter.
as §1

HNE in U937 cells = molecular target: T3, HNE in U937 cells; experiment: Intracellular HNE inhibition in cultured U937 cells (residual activity in lysates); assay type: cell-based; settings: for effect on HNE activity in the U937 cell culture model (in words): 0-26 h, increasing concentrations, alvelestat and sivelestat up to more than 1000-fold above Ki; for time course of HNE inhibition in U937 cells (in words): 0-26 h culture
Method: The enzymatic activity of HNE was measured using a fluorescence-based assay in 96-well black bottom plates (Corning®, 003916, New York, NY, USA). HNE (0.5 nM) or cell lysates (20 µL, ~100 PMN/µL, ~1000 U937/µL, ~5000 HL-60/µL or ~1000 HMC-1/µL) were diluted in assay buffer (200 mM TRIS HCl, 500 mM NaCl, 0.05% Tween-20, pH 8.0). […] AMC (7-Amino-4-methylcoumarin) standard curves were generated by measuring serial dilutions of the fluorophore AMC (1 µM–0 µM) in assay buffer on the same plate and used to calculate nM AMC generation from fluorescence measurements.
U937 cells were plated in sterile 96-U-well plates (92697, TPP, Trasadingen, Switzerland) at a density of 100 cells/µL in a cell culture medium (180 µL per well). Increasing concentrations of inhibitors and solvent controls were diluted in a culture medium and added (20 µL/well) to the 96-well plate 26 h, 6 h, 3 h, and 0 h before harvesting and lysing the cells (see below). Plates were kept at 37 °C, 5% CO2, and 95% humidity throughout the incubation period. […] Similarly, freshly isolated PMN were plated at 50–100 cells/µL in PBS (1 g/L glucose) and incubated for 1 h with inhibitors or controls.
For cell lysis, cells were pelleted in the microtiter plates by centrifugation (400× g, 10 min, 4 °C) and washed three times in PBS (4 °C). Washed cells were then lysed by adding lysis buffer (PBS, 1 M NaCl, 0.1% Tween-20, pH 7.4) and freeze–thawing on dry ice. Finally, lysates were centrifuged (2100× g) to remove cell debris. Enzymatic activity of HNE was determined as described above, and residual activity present after incubation with inhibitors expressed as % of matched solvent controls.

isolated HNE [2] = molecular target: T4, isolated HNE; experiment: Formation and dissociation of the HNE/inhibitor complex (pre-steady-state kinetics); assay type: biochemical; settings: for koff: koff = Ki × kon, irreversible inhibitors ≈ zero; for kon: pre-steady-state kinetics, HNE 0.6 nM, 37 °C, mean ± SD
Method: To determine the association rates (kon) of the inhibitors, the enzymatic activity of HNE (0.6 nM) was recorded continuously in an SFM25 fluorometer (Biotek Kontron, Neufahrn, Germany) by following the cleavage of MeOSuc-AAPV-AMC (10 µM) at 37 °C. When a constant rate was established (i.e., after 1–5 min), an inhibitor was added, and the reaction followed for up to 60 min. The pseudo-first-order rate constant kobs was obtained by fitting the observed presteady-state progress curve to the integrated equation of Morrison with pro-Fit. Apparent second-order rate constants were subsequently calculated as k2/Ki = kobs/It by linear regression from several independent experiments using a range of concentrations. For reversible inhibitors, the dissociation rate koff was subsequentially calculated as koff = Ki × kon; for irreversible inhibitors, koff is ≈ zero. Finally, the halftime of the HNE/inhibitor complex formation and dissociation were calculated as t1/2,on = 0.693/(kass × It + koff) and t1/2,off = 0.693/koff, respectively.

isolated HNE [3] = molecular target: T4, isolated HNE; parameters: method as in PMID 21791628; settings: cited from earlier work
HNE in mature PMN = molecular target: T5, HNE in mature PMN; experiment: Intracellular HNE inhibition in freshly isolated mature PMN; settings: for potency in PMN compared with U937 cells (in words): PMN 1 h vs U937 0-3 h
[4] = Inhibitor stability in serum-free cell culture medium; assay type: physicochemical; settings: 26 h, serum-free medium, 37 °C
Method: Inhibitors were prepared as above and incubated for 26 h in RPMI at 37 °C. Residual inhibitor activity was compared to the activity of freshly prepared compounds by measuring the inhibition of HNE.

U937 cells = experiment: LDH release from U937 cells; assay type: cell-based, human; settings: 12.5 µM, after 26 h
Method: Cytotoxicity of the inhibitors was determined by analyzing the release of lactate dehydrogenase (LDH) into the cell culture medium using the LDH cytotoxicity kit II (PromoKine, Heidelberg, Germany) or the more sensitive Pierce LDH cytotoxicity assay kit (Thermo Scientific, Darmstadt, Germany) following the manufacturer’s instructions.

[5] = molecular target: T6, elastase-like activity (HNE) in PMN lysates; experiment: Inhibition of elastase-like activity in PMN lysates; assay type: biochemical; settings: 4 µM, 1 h, 37 °C; read-out: inhibition of elastase-like activity in PMN lysate
Source text: Residual erythrocytes were eliminated by hypotonic lysis.
as §2

[6] = test system: elastase-like activity in HL-60 lysates; experiment: Inhibition of elastase-like activity in HL-60 lysates; assay type: biochemical, human; settings: 4 µM, 1 h, 37 °C
Source text: as §2

surface of neutrophils = test system: surface of neutrophils; parameters: method as in earlier work; settings: ref 41 (Braun and Schnebli); read-out: surface binding affinity Kd; cited from earlier work
eglin C [7] = molecular target: T7, eglin C; experiment: steady-state inhibition, Morrison fit, U937 lysate
eglin C [8] = molecular target: T7, eglin C; experiment: steady-state inhibition, Morrison fit, isolated HNE

| Molecule | Ki ([1]; HNE 0.5 nM) | Ki (HNE in U937 lysates) | effect on HNE activity in the U937 cell culture model (in words) (HNE in U937 cells) | effect on HNE in mature PMN (in words) (HNE in mature PMN; 1 h incubation) | time course of HNE inhibition in U937 cells (in words) (HNE in U937 cells) | koff (isolated HNE [2]) | kon (isolated HNE [2]) | potency in PMN compared with U937 cells (in words) (HNE in mature PMN) | other results |
| --- | --- | --- | --- | --- | --- | --- | --- | --- | --- |
| Cc1c(-c2ccnn2C)cc(C(=O)NCc2ccc(S(C)(=O)=O)cn2)c(=O)n1-c1cccc(C(F)(F)F)c1 [Alvelestat, alvelestat] | 0.009 µM | 0.011 µM | no detectable effect; also recorded: no measurable effect; also recorded: do not cause detectable intracellular inhibition | negligible effect |  |  |  |  | half-life of the complex with HNE (in words) (isolated HNE [2]): seconds to a few minutes; koff (isolated HNE [3]): 0.057 s⁻¹; kon (isolated HNE [3]; too fast to be recorded with authors' setup): 7e+06 M⁻¹ s⁻¹ |
| N=C(N)c1ccccc1 [Benzamidine, benzamidine] | > 1000 µM | > 1000 µM |  |  |  |  |  |  | inhibition of HNE (in words) [1]: no inhibition |
| CN(C(=O)c1cc2ccccc2cc1C(=O)C(c1cccc2ccccc12)P(=O)(O)O)C1CCN(C(=O)c2ccccc2)CC1 (centres unmarked) [Cathepsin G Inhibitor] | > 10 µM |  |  |  |  |  |  |  | inhibition of HNE (in words) [1]: no inhibition |
| CCC[C@@H](NC(=O)N1C(=O)C(CC)(CC)[C@@H]1Oc1ccc(C(=O)N2CCN(C)CC2)cc1)c1ccc2c(c1)OCO2 [DMP 777] | 0.00025 µM | 0.00034 µM |  |  | inhibit HNE in U937 cells increasingly over the 26 h observation period | 0.00012 s⁻¹ | 4.9 ± 0.4 × 10^5 M^−1 s^−1 | somewhat less potent |  |
| CC(C)[C@@H]1C(=O)N(S(C)(=O)=O)[C@@H]2CCN(C(=O)/C=C/CN3CCCCC3)[C@H]21 [GW311616] |  |  |  |  | inhibit HNE in U937 cells increasingly over the 26 h observation period |  |  | somewhat less potent |  |
| COC(=O)CCC(=O)N[C@@H](C)C(=O)N[C@@H](C)C(=O)N1CCC[C@H]1C(=O)N[C@H](C(=O)CCl)C(C)C [MeOSuc-AAPV-CMK] (MeOSuc-AAPV-CH2Cl) |  |  |  |  | inhibit HNE in U937 cells increasingly over the 26 h observation period |  |  |  |  |
| COc1cc(C(C)C)c2c(c1)S(=O)(=O)N(COc1cc(=O)n3cccc(OCCN4CCCCC4)c3n1)C2=O [SSR 69071] |  | 0.00033 µM |  |  | most effective immediately after addition and then lose effect over time; also recorded: lose effectiveness over time | 9.2e-05 s⁻¹ | 2.8 ± 0.06 × 10^5 M^−1 s^−1 |  | stability in cell culture medium (in words) [4]: appeared stable; LDH release from U937 cells (U937 cells): 12 ± 2% |
| CC(C)(C)C(=O)Oc1ccc(S(=O)(=O)Nc2ccccc2C(=O)NCC(=O)O)cc1 [Sivelestat, sivelestat] |  |  | no detectable effect; also recorded: no measurable effect; also recorded: do not cause detectable intracellular inhibition | negligible effect |  |  |  | somewhat more effective in PMN than U937 cells | inhibition at 4 µM ([1]; 4 µM, 1 h, 37 °C, HNE 0.5 nM): 99 ± 0.3%; inhibition at 4 µM (HNE in U937 lysates; 4 µM, 1 h, 37 °C, read-out: inhibition of elastase-like activity in U937 lysate): 96 ± 0.3%; inhibition at 4 µM [5]: 97 ± 0.6%; inhibition of elastase-like activity in HL-60 lysate [6]: 2 ± 1.2%; half-life of the complex with HNE (in words) (isolated HNE [2]): seconds to a few minutes |
| B1 |  |  | do not inhibit HNE | inhibits intracellular HNE but only in mature neutrophils |  | 3.8e-05 s⁻¹ | 2.9 ± 0.09 × 10^6 M^−1 s^−1 |  | fold less effective on HNE in cell lysates than on isolated HNE (HNE in U937 lysates; U937 lysate vs isolated HNE): 10 fold; fold less potent in PMN lysates (HNE in U937 lysates; printed 'PMN lysates'): ~ 10 fold; effect on HNE in U937 cells (HNE in U937 cells; 10 µM, after 26 h): little effect; Kd (surface of neutrophils): 0.2 µM; IC50 (HNE in mature PMN; read-out: IC50, HNE in PMN, 1 h incubation): ~0.02 µM; IC50 (HNE in mature PMN; read-out: IC50 for the inhibition of intracellular HNE, mature neutrophils): 0.02 µM |
| B2 |  |  |  |  |  |  |  |  | Ki (eglin C [7]): 0.00019 µM; Ki (eglin C [8]): 0.013 nM |
